# In ChEMBL document CHEMBL1201862, “PubChem BioAssay data set” (2004):
#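 Where inhibition never reached the appropriate level, the endpoint shown equals the highest concentration tested. Otherwise, values were interpolated linearly from a five-concentration, 48-hour dose response in 96-well plates. At the GI50, growth is halved.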 Calls of active or inactive are those of the source. Cut-off read from the data, not from the text of the source: active = GI50 up to about 1.1 µM and inactive = higher.
# What was measured:
# Test in all cases: NCI tumour cell line growth inhibition, 48 h
# HOP-62 = test system: HOP-62
# OVCAR-3 = test system: OVCAR-3
# NCI-H522 = test system: NCI-H522
# NCI-H460 = test system: NCI-H460
# CCRF-CEM = test system: CCRF-CEM
# K562 = test system: K562
# IGROV-1 = test system: IGROV-1
# SNB-19 = test system: SNB-19
# HCC 2998 = test system: HCC 2998
# DMS-273 = test system: DMS-273
# A549 = test system: A549
# HT-29 = test system: HT-29
# SW-620 = test system: SW-620
# MOLT-4 = test system: MOLT-4
# LOX IMVI = test system: LOX IMVI
# SNB-75 = test system: SNB-75
# OVCAR-5 = test system: OVCAR-5
# SF-295 = test system: SF-295
# SK-MEL-2 = test system: SK-MEL-2
# HCT-116 = test system: HCT-116
Compound,GI50 (HOP-62),GI50 (OVCAR-3),GI50 (NCI-H522),GI50 (NCI-H460),GI50 (CCRF-CEM),GI50 (K562),GI50 (IGROV-1),GI50 (SNB-19),GI50 (HCC 2998),GI50 (DMS-273),GI50 (A549),GI50 (HT-29),GI50 (SW-620),GI50 (MOLT-4),GI50 (LOX IMVI),GI50 (SNB-75),GI50 (OVCAR-5),GI50 (SF-295),GI50 (SK-MEL-2),GI50 (HCT-116)
COC(=O)C1C(C)N1C (configuration not stated),> 100 µM (inactive),> 100 µM (inactive),> 100 µM (inactive),> 100 µM (inactive),> 100 µM (inactive),> 100 µM (inactive),> 100 µM (inactive),> 100 µM (inactive),> 100 µM (inactive),> 100 µM (inactive),> 100 µM (inactive),> 100 µM (inactive),> 100 µM (inactive),> 100 µM (inactive),> 100 µM (inactive),> 100 µM (inactive),,,,
CCC(C(=O)O)c1ccc(OC)cc1 (configuration not stated),> 100 µM (inactive),> 100 µM (inactive),> 100 µM (inactive),> 100 µM (inactive),> 100 µM (inactive),> 100 µM (inactive),> 100 µM (inactive),> 100 µM (inactive),> 100 µM (inactive),> 100 µM (inactive),> 100 µM (inactive),> 100 µM (inactive),> 100 µM (inactive),> 100 µM (inactive),> 100 µM (inactive),> 100 µM (inactive),> 100 µM (inactive),> 100 µM (inactive),> 100 µM (inactive),> 100 µM (inactive)
O=c1ccn(COC(COCc2ccccc2)COCc2ccccc2)c(=O)[nH]1,> 100 µM (inactive),> 100 µM (inactive),,> 100 µM (inactive),> 100 µM (inactive),> 100 µM (inactive),> 100 µM (inactive),> 100 µM (inactive),> 100 µM (inactive),,,> 100 µM (inactive),> 100 µM (inactive),24.2 µM (inactive),> 100 µM (inactive),> 100 µM (inactive),> 100 µM (inactive),> 100 µM (inactive),> 100 µM (inactive),> 100 µM (inactive)
O=C(O)C1CCCCN1c1ccccc1[N+](=O)[O-] (configuration not stated),> 100 µM (inactive),> 100 µM (inactive),> 100 µM (inactive),> 100 µM (inactive),> 100 µM (inactive),> 100 µM (inactive),> 100 µM (inactive),> 100 µM (inactive),> 100 µM (inactive),> 100 µM (inactive),> 100 µM (inactive),> 100 µM (inactive),> 100 µM (inactive),> 100 µM (inactive),> 100 µM (inactive),> 100 µM (inactive),> 100 µM (inactive),> 100 µM (inactive),> 100 µM (inactive),> 100 µM (inactive)
O=C(/C=N/c1ccccc1S)c1ccco1,3.66 µM (inactive),17.1 µM (inactive),15.5 µM (inactive),,3.14 µM (inactive),18.2 µM (inactive),9.33 µM (inactive),4.74 µM (inactive),,11.2 µM (inactive),5.11 µM (inactive),13.3 µM (inactive),14.7 µM (inactive),5.32 µM (inactive),,,,5.08 µM (inactive),16.4 µM (inactive),3.15 µM (inactive)
O=c1[nH]c(-c2ccc(Cl)cc2)cc2ccsc12,8.07 µM (inactive),1.66 µM (inactive),3.31 µM (inactive),4.74 µM (inactive),,5.16 µM (inactive),3.49 µM (inactive),2.49 µM (inactive),2.31 µM (inactive),,3.5 µM (inactive),4.07 µM (inactive),4.69 µM (inactive),3.78 µM (inactive),4.36 µM (inactive),3.66 µM (inactive),6.34 µM (inactive),3.42 µM (inactive),3.21 µM (inactive),3.3 µM (inactive)
O=C=C=P(c1ccccc1)(c1ccccc1)c1ccccc1,,,,86.9 µM (inactive),76 µM (inactive),27 µM (inactive),41.9 µM (inactive),> 100 µM (inactive),61.5 µM (inactive),36.9 µM (inactive),40.6 µM (inactive),,> 100 µM (inactive),55.8 µM (inactive),40.1 µM (inactive),23.5 µM (inactive),28.5 µM (inactive),> 100 µM (inactive),49.5 µM (inactive),34.4 µM (inactive)
OC[C@H]1O[C@@H](n2cnc3cncnc32)[C@H](O)[C@@H]1O [NEBULARINE],2.45 µM (inactive),1.65 µM (inactive),2.1 µM (inactive),0.593 µM (active),1.32 µM (inactive),0.679 µM (active),0.64 µM (active),1.45 µM (inactive),0.989 µM (active),0.59 µM (active),0.904 µM (active),0.377 µM (active),0.462 µM (active),1.26 µM (inactive),0.977 µM (active),0.628 µM (active),1.4 µM (inactive),2 µM (inactive),1.67 µM (inactive),0.321 µM (active)
